The target in assay [1] is catalytic domain 2 (CD2) of HDAC6 (Homo sapiens (Human), UniProt Q9UBN7). Description: Cellular target engagement assay - NanoBRET. The format is cell-based. The settings on record: NanoLuc-HDAC6(CD2) in HEK293T cells, 2 hours, read-out: IC50 (HDAC6(CD2) interaction). (BRET reads energy transfer from a luciferase to a nearby fluorophore.)
The target of assay [2] is human full-length recombinant HDAC1 (Homo sapiens (Human), UniProt Q13547). Description: HDAC1 enzymatic activity assay (Reaction Biology Corporation, RHKKAc fluorogenic peptide). It counts as biochemical. The settings on record: Reaction Biology Corporation protocol, RHKKAc fluorogenic peptide 10 μM; read-out: HDAC1 biochem. The protocol:
(§1) Dose response testing of HDAC6 and HDAC 1 were run at Reaction Biology Corporation (RBC). Inhibition of HDAC enzymes was performed using N-terminal GST tagged human full-length recombinant HDAC6 (H88-30G, SignalChem) and C-terminal FLAG His tag human full-length recombinant HDAC1 produced in insect cells (KDA-21-365, RBC). Enzyme reactions were run in 50 mM Tris-HCl, pH8.0, 137 mM NaCl, 2.7 mM KCl, and 1 mM MgCl2 with 1 mg/ml BSA, 1% DMSO freshly added. 2× enzyme was delivered in the wells of the reaction plate except for the “no enzyme” control wells. In the latter, buffer was added. Compounds in 100% DMSO were delved into the enzyme mixture by acoustic technology (Echo550). Plates are spun down and compounds were incubation with the enzyme for 10 min at room temperature. 2× Fluorogenic peptide from p53 residues 379-382 (RHKKAc, 10 μM final concentration) was added in all wells to initiate the reaction, followed by 1 h incubation at 30° C. Developer containing Trichostatin A was added to stop the reaction and generate fluorescent color. A kinetic measurement was carried out for 20 min with 5 min interval on the Envision plate reader (Perkin Elmer, Ex/Em=360/460). End point reading i.e., plateau of the development reaction was used for analysis. Data was reported by RBC as percentage enzyme activity. Percentage inhibition was calculated by subtracting percentage enzyme activity from 100. IC50 values were calculated using GraphPad Prism 9 based on the log(inhibitor) vs. response—Variable slope (four parameters) equation.

In assay [3] the target is human full-length recombinant HDAC6 (Homo sapiens (Human), UniProt Q9UBN7). Description: HDAC6 enzymatic activity assay (Reaction Biology Corporation, RHKKAc fluorogenic peptide). It counts as biochemical. The settings on record: Reaction Biology Corporation protocol, RHKKAc fluorogenic peptide 10 μM; read-out: HDAC6 biochem. Here is the method:
as §1

This is an account of results in patent US20250051319A1 (AUGUSTINE THERAPEUTICS, priority 2021, published 2025).

Molecules are shown by their SMILES. pIC50: −log10 of the molar value.

human full-length recombinant HDAC1, sequence (Q13547 whole entry): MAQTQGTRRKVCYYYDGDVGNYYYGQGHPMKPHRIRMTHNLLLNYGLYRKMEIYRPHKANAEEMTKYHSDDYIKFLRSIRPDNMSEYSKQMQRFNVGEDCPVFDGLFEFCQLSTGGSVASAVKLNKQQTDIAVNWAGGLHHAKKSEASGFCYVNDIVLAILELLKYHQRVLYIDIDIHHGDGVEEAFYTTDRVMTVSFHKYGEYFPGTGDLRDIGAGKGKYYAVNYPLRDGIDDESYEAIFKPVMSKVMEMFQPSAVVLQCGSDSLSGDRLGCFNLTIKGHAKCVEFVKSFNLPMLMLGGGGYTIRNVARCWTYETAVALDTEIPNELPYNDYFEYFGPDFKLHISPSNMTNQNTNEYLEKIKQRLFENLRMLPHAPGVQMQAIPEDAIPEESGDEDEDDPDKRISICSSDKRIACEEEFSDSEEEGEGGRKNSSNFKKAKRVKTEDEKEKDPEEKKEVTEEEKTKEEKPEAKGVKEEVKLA
catalytic domain 2 (CD2) of HDAC6, sequence (Q9UBN7 482-800): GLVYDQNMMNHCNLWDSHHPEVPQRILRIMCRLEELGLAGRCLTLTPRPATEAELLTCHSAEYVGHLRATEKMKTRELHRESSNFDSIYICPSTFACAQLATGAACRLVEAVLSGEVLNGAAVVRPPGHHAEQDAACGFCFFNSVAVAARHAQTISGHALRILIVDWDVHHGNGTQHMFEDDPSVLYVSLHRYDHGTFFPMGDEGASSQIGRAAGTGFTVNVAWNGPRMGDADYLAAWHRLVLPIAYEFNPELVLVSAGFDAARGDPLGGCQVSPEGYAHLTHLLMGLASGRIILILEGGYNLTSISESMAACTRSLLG
human full-length recombinant HDAC6, sequence (Q9UBN7 whole entry): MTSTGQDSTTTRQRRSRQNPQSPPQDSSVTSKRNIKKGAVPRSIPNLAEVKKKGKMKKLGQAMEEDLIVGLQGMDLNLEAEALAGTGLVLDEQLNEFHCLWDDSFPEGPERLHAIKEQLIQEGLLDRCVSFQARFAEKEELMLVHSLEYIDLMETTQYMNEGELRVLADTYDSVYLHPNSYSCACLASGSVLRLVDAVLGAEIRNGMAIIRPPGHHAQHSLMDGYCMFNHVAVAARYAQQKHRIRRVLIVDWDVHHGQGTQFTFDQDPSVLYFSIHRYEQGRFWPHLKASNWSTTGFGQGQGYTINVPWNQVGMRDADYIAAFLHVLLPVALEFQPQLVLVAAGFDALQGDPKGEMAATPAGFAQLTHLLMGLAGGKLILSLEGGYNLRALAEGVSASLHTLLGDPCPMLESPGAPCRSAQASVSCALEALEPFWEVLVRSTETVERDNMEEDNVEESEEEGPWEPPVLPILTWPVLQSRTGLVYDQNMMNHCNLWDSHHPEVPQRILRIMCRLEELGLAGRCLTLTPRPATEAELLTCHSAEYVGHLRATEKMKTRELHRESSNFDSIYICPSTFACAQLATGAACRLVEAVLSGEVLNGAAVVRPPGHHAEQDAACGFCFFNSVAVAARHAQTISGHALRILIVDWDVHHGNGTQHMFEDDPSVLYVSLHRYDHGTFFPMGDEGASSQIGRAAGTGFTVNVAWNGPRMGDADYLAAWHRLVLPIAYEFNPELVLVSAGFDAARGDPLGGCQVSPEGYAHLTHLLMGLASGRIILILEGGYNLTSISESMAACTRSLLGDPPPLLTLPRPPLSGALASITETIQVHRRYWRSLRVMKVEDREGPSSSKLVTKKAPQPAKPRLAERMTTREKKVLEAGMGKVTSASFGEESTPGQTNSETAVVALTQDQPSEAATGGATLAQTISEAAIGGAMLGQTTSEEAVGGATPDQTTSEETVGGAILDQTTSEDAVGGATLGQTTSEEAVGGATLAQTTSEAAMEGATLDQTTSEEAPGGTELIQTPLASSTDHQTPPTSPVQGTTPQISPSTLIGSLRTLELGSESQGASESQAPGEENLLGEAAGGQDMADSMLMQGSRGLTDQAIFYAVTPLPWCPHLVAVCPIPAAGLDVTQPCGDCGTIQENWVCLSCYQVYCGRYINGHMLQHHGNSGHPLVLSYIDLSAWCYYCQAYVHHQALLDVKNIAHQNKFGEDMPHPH

`COCCn1cc2c(SCC(=O)c3ccc(CNC(=O)CO)s3)nc(C(F)(F)F)nc2n1` [Compound 132, 2-hydroxy-N-((5-(2-((2-(2-methoxyethyl)-6-(trifluoromethyl)-2H-pyrazolo[3,4-d]pyrimidin-4-yl)thio)acetyl)thiophen-2-yl)methyl)acetamide]: the pIC50 in assay [1] was at least 7.00; in assay [2], below 5.00; in assay [3], at least 7.00.

On to `Cc1nc(SCC(=O)c2ccc(CNC(=O)CO)s2)c2cc(C(F)(F)F)cnc2n1` [Compound 119, 2-hydroxy-N-((5-(2-((2-methyl-6-(trifluoromethyl)pyrido[2,3-d]pyrimidin-4-yl)thio)acetyl)thiophen-2-yl)methyl)acetamide], for which the pIC50 in assay [1] was at least 7.00; in assay [2], below 5.00; in assay [3], at least 7.00.

With `O=C(CO)NCc1ccc(C(=O)CSc2nc(C(F)(F)F)nc3nn(C4CC4)cc23)s1` [Compound 79, N-((5-(2-((2-cyclopropyl-6-(trifluoromethyl)-2H-pyrazolo[3,4-d]pyrimidin-4-yl)thio)acetyl)thiophen-2-yl)methyl)-2-hydroxyacetamide], the pIC50 in assay [1] is at least 7.00; in assay [2], below 5.00; in assay [3], at least 7.00.

In the case of `Cc1nc(SCC(=O)c2ccc(CNC(=O)CO)s2)c2cc(Cl)c(F)cc2n1` [Compound 73, N-((5-(2-((6-chloro-7-fluoro-2-methylquinazolin-4-yl)thio)acetyl)thiophen-2-yl)methyl)-2-hydroxyacetamide], the pIC50 was at least 7.00 in assay [1], below 5.00 in assay [2] and at least 7.00 in assay [3].

With `O=C(CO)NCc1ccc(C(=O)CSc2nc3ccc(C(F)(F)F)nc3o2)s1` [Compound 117, 2-hydroxy-N-((5-(2-((5-(trifluoromethyl)oxazolo[5,4-b]157yrrolid-2-yl)thio)acetyl)thiophen-2-yl)methyl)acetamide], the pIC50 is at least 7.00 in assay [1], below 5.00 in assay [2] and at least 7.00 in assay [3].

Consider `Cc1nc(SCC(=O)c2ccc(CNC(=O)CO)s2)c2cccnc2n1` [Compound 64, 2-hydroxy-N-((5-(2-((2-methylpyrido[2,3-d]pyrimidin-4-yl)thio)acetyl)thiophen-2-yl)methyl)acetamide], for which the pIC50 in assay [1] was at least 7.00; in assay [2], below 5.00; in assay [3] it was at least 7.00.

`O=C(CSc1nc(C(F)(F)F)nc2nn(C3CC3)cc12)c1ccc(CNC(=O)C(F)(F)C(F)(F)F)s1` [Example 44, N-((5-(2-((2-cyclopropyl-6-(trifluoromethyl)-2H-pyrazolo[3,4-d]pyrimidin-4-yl)thio)acetyl)thiophen-2-yl)methyl)-2,2,3,3,3-pentafluoropropanamide]: the pIC50 was 6.30 to 7.00 in assay [1], below 5.00 in assay [2] and at least 7.00 in assay [3].

In the case of `O=C(CO)NCc1ccc(C(=O)CSc2nc(C(F)(F)F)nc3c2cnn3C2CC2)s1` [Compound 133, N-((5-(2-((1-cyclopropyl-6-(trifluoromethyl)-1H-pyrazolo[3,4-d]pyrimidin-4-yl)thio)acetyl)thiophen-2-yl)methyl)-2-hydroxyacetamide], the values for the pIC50 in assay [1], in assay [2] and in assay [3] were at least 7.00, below 5.00 and at least 7.00, respectively.

`COCCn1ncc2c(SCC(=O)c3ccc(CNC(=O)CO)s3)nc(C(F)(F)F)nc21` [Compound 125, 2-hydroxy-N-((5-(2-((1-(2-methoxyethyl)-6-(trifluoromethyl)-1H-pyrazolo[3,4-d]pyrimidin-4-yl)thio)acetyl)thiophen-2-yl)methyl)acetamide]: the pIC50 was at least 7.00 in assay [1], below 5.00 in assay [2] and at least 7.00 in assay [3].

Consider `Cc1nc(SCC(=O)c2ccc(CNC(=O)CO)s2)c2cc(F)cnc2n1` [Compound 124, N-((5-(2-((6-fluoro-2-methylpyrido[2,3-d]pyrimidin-4-yl)thio)acetyl)thiophen-2-yl)methyl)-2-hydroxyacetamide], for which the pIC50 in assay [1] was at least 7.00; in assay [2] it was below 5.00; in assay [3], at least 7.00.

Regarding `COc1ccc2nc(C)nc(SCC(=O)c3ccc(CNC(=O)CO)s3)c2c1` [Example 60, 2-Hydroxy-N-((5-(2-((6-methoxy-2-methylquinazolin-4-yl)thio)acetyl)thiophen-2-yl)methyl)acetamide], the pIC50 in assay [1] is at least 7.00; in assay [2], below 5.00; in assay [3] it was at least 7.00.

`Cc1nc(SCC(=O)c2ccc(CNC(=O)CO)s2)c2cc(C(F)(F)F)ccc2n1` [Compound 76, 2-hydroxy-N-((5-(2-((2-methyl-6-(trifluoromethyl)quinazolin-4-yl)thio)acetyl)thiophen-2-yl)methyl)acetamide]: the pIC50 was at least 7.00 in assay [1], below 5.00 in assay [2] and at least 7.00 in assay [3].

Regarding `O=C(CSc1nc(C(F)(F)F)nc2ncccc12)c1ccc(CNC(=O)C2CC2(F)F)s1` (stereo not drawn) [Compound 114, 2,2-difluoro-N-((5-(2-((2-(trifluoromethyl)pyrido[2,3-d]pyrimidin-4-yl)thio)acetyl)thiophen-2-yl)methyl)cyclopropane-1-carboxamide], the pIC50 in assay [1] is at least 7.00; in assay [2], below 5.00; in assay [3], at least 7.00.

On to `Cn1ncc2c(SCC(=O)c3ccc(CNC(=O)CO)s3)nc(C(F)(F)F)nc21` [Compound 74, 2-hydroxy-N-((5-(2-((1-methyl-6-(trifluoromethyl)-1H-pyrazolo[3,4-d]pyrimidin-4-yl)thio)acetyl)thiophen-2-yl)methyl)acetamide], for which the pIC50 in assay [1] is at least 7.00; in assay [2], below 5.00; in assay [3] it was at least 7.00.

With `COc1cc(C(F)(F)F)cc2c(SCC(=O)c3ccc(CNC(=O)CO)s3)nc(C)nc12` [Compound 148, 2-hydroxy-N-((5-(2-((8-methoxy-2-methyl-6-(trifluoromethyl)quinazolin-4-yl)thio)acetyl)thiophen-2-yl)methyl)acetamide], the pIC50 in assay [1] is at least 7.00; in assay [2], below 5.00; in assay [3], at least 7.00.

`O=C(CO)NCc1ccc(C(=O)CSc2nc3nc(C(F)(F)F)ccc3o2)s1` [Compound 72, 2-hydroxy-N-((5-(2-((5-(trifluoromethyl)oxazolo[4,5-b]156yrrolid-2-yl)thio)acetyl)thiophen-2-yl)methyl)acetamide]: the pIC50 was at least 7.00 in assay [1], 6.00 to 6.30 in assay [2] and at least 7.00 in assay [3].

As for `COc1cnc2nc(C)nc(SCC(=O)c3ccc(CNC(=O)CO)s3)c2c1` [Compound 140, 2-hydroxy-N-((5-(2-((6-methoxy-2-methylpyrido[2,3-d]pyrimidin-4-yl)thio)acetyl)thiophen-2-yl)methyl)acetamide], the pIC50 was at least 7.00 in assay [1], below 5.00 in assay [2] and at least 7.00 in assay [3].

Consider `O=C(CSc1nc(C(F)(F)F)nc2nn(C3CC3)cc12)c1ccc(CNC(=O)C2CC2(F)F)s1` (stereo not drawn) [Example 43, N-((5-(2-((2-cyclopropyl-6-(trifluoromethyl)-2H-pyrazolo[3,4-d]pyrimidin-4-yl)thio)acetyl)thiophen-2-yl)methyl)-2,2-difluorocyclopropane-1-carboxamide], for which the pIC50 was 6.30 to 7.00 in assay [1], below 5.00 in assay [2] and at least 7.00 in assay [3].

In the case of `Cc1nc(SCC(=O)c2ccc(CNC(=O)CO)s2)c2cc(N3CCN(C)CC3)ccc2n1` [Compound 85, 2-hydroxy-N-((5-(2-((2-methyl-6-(4-methylpiperazin-1-yl)quinazolin-4-yl)thio)acetyl)thiophen-2-yl)methyl)acetamide], the figures for the pIC50 in assay [1], in assay [2] and in assay [3] were at least 7.00, below 5.00 and at least 7.00, respectively.

Turning to `Cn1cc2c(SCC(=O)c3ccc(CNC(=O)CO)s3)nc(C(F)(F)F)nc2n1` [Compound 61, 2-hydroxy-N-((5-(2-((2-methyl-6-(trifluoromethyl)-2H-pyrazolo[3,4-d]pyrimidin-4-yl)thio)acetyl)thiophen-2-yl)methyl)acetamide], the results for the pIC50 in assay [1], in assay [2] and in assay [3] were at least 7.00, below 5.00 and at least 7.00, respectively.

In the case of `O=C(CSc1nc(C(F)(F)F)nc2ncccc12)c1ccc(CN2CCOCC2=O)s1` [Example 138, 4-((5-(2-((2-(trifluoromethyl)pyrido[2,3-d]pyrimidin-4-yl)thio)acetyl)thiophen-2-yl)methyl)morpholin-3-one], the pIC50 is at least 7.00 in assay [1], below 5.00 in assay [2] and at least 7.00 in assay [3].

In the case of `O=C(CO)NCc1ccc(C(=O)CSc2nc3ncc(C(F)(F)F)cc3o2)s1` [Compound 118, 2-hydroxy-N-((5-(2-((6-(trifluoromethyl)oxazolo[4,5-b]157yrrolid-2-yl)thio)acetyl)thiophen-2-yl)methyl)acetamide], the pIC50 was at least 7.00 in assay [1], 6.00 to 6.30 in assay [2] and at least 7.00 in assay [3].
